In patent publication US9770026B2, “Substituted pyrimidine compound and uses thereof” (Shenyang Sinochem Agrochemicals R&D Co., Ltd., priority 2012, dated 2017):

Tests used:
corn rust = test: protectant activity in vivo against corn rust; conditions: Zea mays, 168 h
cucumber gray mold = test: fungicidal activity in vitro (inhibition rate) against cucumber gray mold; format: cell-based; conditions: 25 ppm, in vitro; read-out: inhibition rate against cucumber gray mold
cucumber downy mildew = test: protectant activity in vivo against cucumber downy mildew; conditions: Cucumis sativus, 168 h
wheat powdery mildew = test: protectant activity in vivo against wheat powdery mildew; conditions: Triticum aestivum, 168 h, read-out: protectant activity against wheat powdery mildew in vivo, 400 ppm
rice blast = test: microbe, parasite or virus in culture; format: cell-based; conditions: Pyricularia oryzae, read-out: inhibition rate against rice blast, 25 ppm, in vitro

## COc1cc(OC)nc(Oc2ccc(CCNc3ncnc(C)c3Cl)cc2)n1 [Compound I-4757]
Corn rust; read-out: protectant activity against corn rust in vivo, 25 ppm
  pest or weed control at 25 ppm: 80 to 99%
Corn rust; read-out: protectant activity against corn rust in vivo, 100 ppm
  pest or weed control at 100 ppm: 100%
Corn rust; read-out: protectant activity against corn rust in vivo, 400 ppm
  pest or weed control at 400 ppm: 100%
Cucumber gray mold
  inhibition at 25 ppm: 100%
Cucumber downy mildew; read-out: protectant activity against cucumber downy mildew in vivo, 100 ppm
  pest or weed control at 100 ppm: 100%
Cucumber downy mildew; read-out: protectant activity against cucumber downy mildew in vivo, 400 ppm
  pest or weed control at 400 ppm: 100%
Wheat powdery mildew
  pest or weed control at 400 ppm: 100%
Rice blast
  inhibition at 25 ppm: 80 to 99%
other
  melting point: 119 to 120 °C
